Source: BindingDB's records for doi:10.7270/Q2XG9T96 (n/a, 1997)

Target: Phosphatidylinositol 4-kinase type 2-alpha (Homo sapiens, UniProt Q9BTU6)
Assay: Inhibition of Phosphatidylinositol 4-kinase of human epidermoid carcinoma A431 cells

Phosphatidylinositol 4-kinase type 2-alpha, sequence (Q9BTU6 whole entry): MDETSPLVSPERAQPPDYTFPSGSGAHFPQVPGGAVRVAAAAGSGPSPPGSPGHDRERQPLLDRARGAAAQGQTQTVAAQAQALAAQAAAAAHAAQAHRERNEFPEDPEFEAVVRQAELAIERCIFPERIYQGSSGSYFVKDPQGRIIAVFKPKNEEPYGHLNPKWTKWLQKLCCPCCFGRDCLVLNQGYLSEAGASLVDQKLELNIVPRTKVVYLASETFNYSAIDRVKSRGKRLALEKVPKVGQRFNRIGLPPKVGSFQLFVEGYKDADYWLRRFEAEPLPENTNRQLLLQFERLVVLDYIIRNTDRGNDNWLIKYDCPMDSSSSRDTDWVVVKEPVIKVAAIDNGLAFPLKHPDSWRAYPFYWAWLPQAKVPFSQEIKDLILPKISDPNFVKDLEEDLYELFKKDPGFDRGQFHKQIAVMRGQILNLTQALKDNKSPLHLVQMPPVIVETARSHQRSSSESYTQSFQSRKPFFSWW

IC50: 113 nM
Structure (SMILES): N=C(N)CCNC(=O)c1c[nH]c2nc(N)nc(O)c12 [ECHIGUANINE A]
